The record followed here is article PMC4014701 (Pharmaceuticals, 2014).

Data set [1] is described as follows: Solubility study in distilled deionized water (DDW). The settings on record: for Solubility, fold higher relative to LPV: DDW; for Solubility in DDW: saturated solution, room temperature, 24 h; for solubility at 24 h: distilled deionized water, water, thermodynamic from solid. The method, then: Aqueous solubility study of prodrugs was performed according to the published protocol from our laboratory. Saturated solution of each prodrug was prepared in DDW in siliconized tubes. Tubes were placed in shaking water bath at room temperature (RT) for 24 h. Tubes were centrifuged at 10,000 rpm for 10 min to separate undissolved prodrugs. The supernatant was separated, filtered through 0.45 µm membrane (Nalgene syringe filter) and analyzed with HPLC after appropriate dilutions.
(§1) Aqueous solubility and buffer stability samples were measured with reversed phase HPLC technique. Waters 515 pump (Waters, Milford, MA, USA) connected to a UV detector (Absorbance Detector Model UV-C, RAININ, Dynamax, Palo Alto, CA, USA) was employed. A C(18) Kinetex column (100 × 4.6 mm, 2.6 µ; Phenomenex, Torrance, CA, USA) was pumped with mobile phase (1:1) acetonitrile and water (0.1% trifluoroacetic acid) at a flow rate of 0.3 mL/min. Analytes were detected with UV detection at a wavelength of 210 nm.

The nature of data set [2]: Buffer stability (chemical hydrolysis) in DPBS. The settings on record: for Degradation half life: DPBS; for half-life at 50 µM: DPBS buffer. As for the experimental part:
Chemical hydrolysis study of prodrugs was carried out according to the previously published protocols from our laboratory. Degradation rate constant and half-life (t1/2) of prodrugs were determined at various pH. […] Microcentrifuge tubes were placed in shaking water bath (60 rpm) at 37 °C. Samples (100 µL) were withdrawn at predetermined time points and stored at −80° C until further analysis. Prodrug concentrations remaining were plotted versus time in order to calculate degradation rate constants.
as §1

Data set [3] deals with T1, P-gp (MDCK-MDR1 cells) (Homo sapiens, UniProt P08183). As to the kind of experiment: Transepithelial transport across MDCK-MDR1 cells. As for the experimental part: Samples were stored at −80 °C until further analysis.
Samples were extracted with liquid–liquid extraction technique.

Data set [4] relates to CYP3A4 (rat liver microsomes). The data set is described as follows: Rat liver microsomal stability. To be noted: for Half life in liver microsomes, fold higher compared to LPV: time dependent study. As for the experimental part:
(§2) One mL of microsomal solution was generated by adding microsomal protein (0.3 mg/mL), magnesium chloride (5 mM), glucose 6-phosphate (5 mM), b-NADP1 (1 mM), and glucose 6-phosphate dehydrogenase (1 U/mL) in phosphate buffer (100 mM, pH 7.4). […] The metabolic reaction was initiated by adding the NADPH generating system. NADPH generating system was freshly prepared by adding G-6-P, G-6-P DH and NADP in DDW. At predetermined time points, metabolic reaction was arrested by adding equal volumes of ice-cold acetonitrile to the sample. Samples were stored at −80 °C until further analysis by LCMS/MS technique.
(§3) This study was performed according to the previously published protocols from our laboratory. At predetermined time points, about 100 μL of samples were withdrawn and equal volume of acetonitrile was added to stop the degradation process. Degradation study was conducted for a period of 2 h. Samples were stored at −80 °C until further analysis.
(§4) Enzymatic degradation was arrested by adding equal amount of acetonitrile and samples were stored in −80 °C until further analysis.
(§5) Rat liver microsomes were employed at the concentration of 0.3 mg/mL. […] Liver microsomal solution was incubated with ketoconazole for 15 min prior to the initiation of stability study.

Data set [5] deals with T2, MRP2 (MDCK-MRP2 cells) (Homo sapiens, UniProt Q92887). The data set is described as follows: Transepithelial transport across MDCK-MRP2 cells.
Description: Transwell® inserts were coated with type 1 rat tail collagen (100 µg/cm^2). Cells were seeded at a density of 250,000 cells per well. Transport studies were conducted across MDCK-MDR1 and MDCK-MRP2 cells in presence and absence of efflux inhibitors for a period of 3 h at 37 °C. Prior to the initiation of transport study, cell monolayer integrity was evaluated by monitoring transepithelial electric resistance (TEER), with an EVOM (epithelial volt ohmmeter from World Precision Instruments, Sarasota, FL, USA). TEER values of the cell monolayer were approximately 250 Ω*cm^2. Monolayers were washed thoroughly with DBPS (pH7.4) for 15 min at 37 °C, three times. […] At predetermined time points (30, 60, 120 and 180 min), 100 µL sample was withdrawn from the receiving chamber and replaced with fresh DPBS to maintain sink conditions. Samples were stored at −80 °C until further analysis. To determine the effect of efflux inhibitors, cells were treated GF 120918 (MDCK-MDR1) and MK 571 (MDCK-MRP2) prior to initiation of the transport study.
Samples were extracted with liquid–liquid extraction technique. About, 50 μL of verapamil (200 ng) was added as an internal standard to each sample. Analytes were extracted by vortexing with 800 μL water saturated ethyl acetate for 2.5 min. Following centrifugation at 10,000 rpm for 7 min, approximately 600 µL of ethyl acetate layer was collected and evaporated under reduce pressure for 45 min. The residue was reconstituted in 100 μL of acetonitrile (80%) and water (20%) containing 0.1% formic acid. Ten microliters of reconstituted samples were injected in LCMS/MS. Similarly, standard solutions were extracted from DPBS and quantified with LCMS/MS. […]
Transepithelial permeability was determined by plotting cumulative amount of analyte transported against time. […]
Transepithelial permeability was calculated by normalizing the steady-state flux with the donor concentration (Cd) according to Equation (2): Transepithelial permeability = flux/Cd (2)
The target of data set [6] is T1, P-gp (MDCK-MDR1 cells). The data set is described as follows: Cellular uptake of unlabelled LPV and prodrugs in MDCK-MDR1 cells. The settings on record: 5 µM, 30 min. The class given is in vitro ADME. Set-up: A. Schinkel and P. Borst (Netherlands Cancer Institute); host or cells: MDCK (MDCK-MDR1), retrovirally transfected. The method, then: About 500 µL of DMEM was added to each well and plates were kept in −80 °C overnight for cell lysis.

In another data set the test system is CYP3A4. The data set is described as follows: Rat liver microsomal stability. The settings on record: Sprague Dawley, rat, pH 7.4. The method, then: as §2, §3, §4, §5
(Liver microsomes are vesicles of endoplasmic reticulum, rich in cytochrome P450 enzymes.)

The test system of the next data set is MDCK-WT cells. As to the kind of experiment: Cytotoxicity, MTS assay. Type of data set: cell-based. To be noted: 4 h incubation; for Reduction in absorbance (positive controls): medium containing 10% DMSO or 0.1% Triton-X. The method, then:
Cytotoxicity of prodrugs was determined in MDCK-WT cells with MTS assay based cytotoxicity kit. Briefly, cells were grown overnight in 96 well plates at a density of 20,000 cells per well prior to drug and prodrug addition. […] Cells were then incubated for 4 h at 37 °C. Following incubation, 20 μL of MTS stock solution was added to each well and incubated for 2 h at 37 °C. […] The quantity of formazan product as measured by absorbance is directly proportional to the number of viable cells in test samples.
(In general: Formazan colour is commonly taken as a measure of viable cells.)

In data set [7] the target is T1, P-gp (MDCK-MDR1 cells). The settings on record: MDCK-MDR1, DPBS pH 7.4, 37 °C. The method, then:
(§6) Confluent cells were then trypsinized and plated at a density of 3 × 10^6 cells in 12 well culture plates. Medium was replaced every alternate day until cells reached confluency (6–7 days). Cellular uptake studies were performed on confluent cell monolayers according to previously published protocol from our laboratory. Briefly, medium was removed and cell monolayer was washed with 2 mL of DPBS (130 mM NaCl, 0.03 mM KCl, 7.5 mM Na2HPO4, 1.5 mM KH2PO4, 1 mM CaCl2, 0.5 mM MgSO4, and 5 mM glucose, pH 7.4) three times at 37 °C (each wash of 10 min). […] Following incubation, radioactive solution was quickly removed and plates were washed with ice-cold stop solution (210 mM KCl, 2 mM HEPES, pH of 7.4) to arrest the uptake process. One mL of lysis buffer (0.1% Triton-X solution in 0.3% NaOH) was added to each well and plates were stored overnight at RT. Later, 500 µL solutions were transferred to scintillation vials containing 3 mL of scintillation cocktail. The radioactivity associated with cells was analyzed with a scintillation counter (Beckman Instruments Inc., Model LS-6500; Fullerton, CA, USA). Uptake rate was normalized to protein count which was quantified with a BioRad protein estimation kit.
(§7) Prior to initiation of uptake studies, cells were treated with efflux inhibitors for a period of 15 min. Uptake study was then initiated according to a procedure described in section 2.2.5.

Data set [8] concerns the target T2, MRP2 (MDCK-MRP2 cells). The data set is described as follows: [3H]-LPV uptake in MDCK-MRP2 cells. Type of data set: cell-based. Also on record: A. Schinkel and P. Borst (Netherlands Cancer Institute); host or cells: MDCKII (MDCKII-MRP2), retrovirally transfected. The settings on record: for [3H]-LPV uptake, fold enhancement in presence of inhibitor: DPBS pH 7.4, 37 °C. As for the experimental part:
as §6, §7

Each structure is given as a SMILES string. Values after ≈ are worked out from the molar mass of the structure shown. Where two headings read alike, the source gives them in different places.

T2 sequence (Q92887 whole entry): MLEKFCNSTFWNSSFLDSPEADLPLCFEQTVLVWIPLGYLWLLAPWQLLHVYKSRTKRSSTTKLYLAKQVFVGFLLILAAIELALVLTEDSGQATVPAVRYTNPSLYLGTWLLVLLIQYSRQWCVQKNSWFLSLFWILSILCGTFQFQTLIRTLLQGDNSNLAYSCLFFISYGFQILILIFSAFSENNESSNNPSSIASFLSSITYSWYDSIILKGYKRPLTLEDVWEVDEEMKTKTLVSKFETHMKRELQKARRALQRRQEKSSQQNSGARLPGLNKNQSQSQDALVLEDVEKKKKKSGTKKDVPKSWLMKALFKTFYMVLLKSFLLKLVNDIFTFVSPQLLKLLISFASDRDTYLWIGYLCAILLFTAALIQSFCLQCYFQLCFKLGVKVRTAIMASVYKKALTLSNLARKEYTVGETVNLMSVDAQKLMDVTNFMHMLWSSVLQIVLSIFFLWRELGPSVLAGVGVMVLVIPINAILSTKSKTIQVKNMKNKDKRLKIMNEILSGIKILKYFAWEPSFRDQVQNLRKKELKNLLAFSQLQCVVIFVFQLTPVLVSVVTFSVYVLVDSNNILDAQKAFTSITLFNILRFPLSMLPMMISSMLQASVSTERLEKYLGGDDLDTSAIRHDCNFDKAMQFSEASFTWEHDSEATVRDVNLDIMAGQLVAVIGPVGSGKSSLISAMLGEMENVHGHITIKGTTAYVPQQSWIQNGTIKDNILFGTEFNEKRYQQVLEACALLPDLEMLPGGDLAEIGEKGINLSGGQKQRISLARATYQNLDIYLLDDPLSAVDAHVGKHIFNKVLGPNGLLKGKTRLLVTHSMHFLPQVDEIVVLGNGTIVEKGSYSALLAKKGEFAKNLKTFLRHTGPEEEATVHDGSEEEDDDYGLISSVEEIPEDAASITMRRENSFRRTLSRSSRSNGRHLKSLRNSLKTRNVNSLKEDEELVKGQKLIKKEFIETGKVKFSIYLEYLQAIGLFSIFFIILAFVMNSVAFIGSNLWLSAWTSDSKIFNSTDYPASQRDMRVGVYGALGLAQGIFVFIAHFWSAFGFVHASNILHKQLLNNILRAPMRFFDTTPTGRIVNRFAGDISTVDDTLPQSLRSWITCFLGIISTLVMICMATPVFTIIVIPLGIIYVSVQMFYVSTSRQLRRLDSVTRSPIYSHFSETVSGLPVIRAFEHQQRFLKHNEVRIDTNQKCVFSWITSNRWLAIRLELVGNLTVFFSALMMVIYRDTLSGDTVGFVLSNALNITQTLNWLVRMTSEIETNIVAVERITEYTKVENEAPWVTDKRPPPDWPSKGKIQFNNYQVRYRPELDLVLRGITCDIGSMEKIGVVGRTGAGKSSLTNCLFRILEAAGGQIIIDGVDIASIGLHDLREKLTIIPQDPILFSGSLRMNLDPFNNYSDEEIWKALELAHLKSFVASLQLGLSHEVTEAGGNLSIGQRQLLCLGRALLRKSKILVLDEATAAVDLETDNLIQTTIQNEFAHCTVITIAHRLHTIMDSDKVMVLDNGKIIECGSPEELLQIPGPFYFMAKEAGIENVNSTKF
T1 sequence (P08183 whole entry): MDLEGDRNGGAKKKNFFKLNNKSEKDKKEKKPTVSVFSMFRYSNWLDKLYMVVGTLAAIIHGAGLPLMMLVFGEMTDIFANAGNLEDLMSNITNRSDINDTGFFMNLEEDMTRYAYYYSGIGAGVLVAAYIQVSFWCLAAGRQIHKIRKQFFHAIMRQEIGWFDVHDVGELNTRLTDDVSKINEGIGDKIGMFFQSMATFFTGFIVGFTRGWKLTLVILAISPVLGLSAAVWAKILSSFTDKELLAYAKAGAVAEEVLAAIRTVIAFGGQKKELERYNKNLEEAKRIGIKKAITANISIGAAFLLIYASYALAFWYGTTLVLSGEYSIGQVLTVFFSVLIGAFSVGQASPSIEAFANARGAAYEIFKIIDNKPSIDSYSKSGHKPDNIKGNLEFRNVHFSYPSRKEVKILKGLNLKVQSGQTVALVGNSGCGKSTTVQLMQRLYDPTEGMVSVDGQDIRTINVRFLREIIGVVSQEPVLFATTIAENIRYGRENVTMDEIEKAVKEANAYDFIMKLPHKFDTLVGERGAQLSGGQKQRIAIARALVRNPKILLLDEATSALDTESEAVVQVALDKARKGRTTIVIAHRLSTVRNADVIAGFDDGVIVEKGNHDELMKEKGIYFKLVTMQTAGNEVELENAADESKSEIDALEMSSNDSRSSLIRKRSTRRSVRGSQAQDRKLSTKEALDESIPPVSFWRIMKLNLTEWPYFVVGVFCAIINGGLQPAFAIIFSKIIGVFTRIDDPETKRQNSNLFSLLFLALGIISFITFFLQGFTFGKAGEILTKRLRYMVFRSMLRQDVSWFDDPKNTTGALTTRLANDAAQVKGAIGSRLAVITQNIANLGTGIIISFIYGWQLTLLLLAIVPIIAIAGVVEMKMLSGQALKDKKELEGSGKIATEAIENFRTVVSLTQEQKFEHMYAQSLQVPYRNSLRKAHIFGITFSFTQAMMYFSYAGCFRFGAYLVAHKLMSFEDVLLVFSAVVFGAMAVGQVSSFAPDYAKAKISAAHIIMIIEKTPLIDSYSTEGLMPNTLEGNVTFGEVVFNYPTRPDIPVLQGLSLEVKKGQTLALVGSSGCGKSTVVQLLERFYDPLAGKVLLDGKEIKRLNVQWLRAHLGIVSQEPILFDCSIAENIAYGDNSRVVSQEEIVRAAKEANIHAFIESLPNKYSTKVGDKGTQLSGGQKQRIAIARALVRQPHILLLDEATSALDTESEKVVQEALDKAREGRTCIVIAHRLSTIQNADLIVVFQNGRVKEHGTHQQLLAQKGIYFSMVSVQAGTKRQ

Broadly, the Km is the concentration of substrate that gives half-maximal velocity. With `CSCCC(N)C(=O)OC(CC(Cc1ccccc1)NC(=O)C(C(C)C)N1CCCNC1=O)C(Cc1ccccc1)NC(=O)COc1c(C)cccc1C` (stereo not shown) [Met-LPV, methionine-LPV], in data set [1], the “Solubility, fold higher relative to LPV” value is given as roughly 9 fold and the “Solubility in DDW” value turned out to be 362 ± 21 µg/mL (≈ 476 µM). The same compound displayed a Degradation half life in [2] (pH 4, 37 °C) of 119 ± 6 h. This compound displayed a Degradation half life in [2] (pH 5.5, 37 °C) of 55 ± 6 h. The Degradation half life in data set [2] (pH 7.4, 37 °C) is 6.2 ± 0.4 h. In addition, the “A-B permeability, fold higher relative to LPV” value at P-gp (MDCK-MDR1 cells) [3] is roughly 2.3 fold. Further, in data set [4], the “Degradation rate constant in liver microsomal solution” value is ~3.6 ± 0.4 × 10^−^3 min^−^1; the “Intrinsic clearance (Vmax/Km)” value was found to be 0.5 mL/min/mg protein; the Km is roughly 13 µM; the “Half life in liver microsomes, fold higher compared to LPV” value (“Half life … fold higher compared to LPV” below) was 1.6 to 1.8 fold. Further, the “A-B permeability, fold higher relative to LPV” value at MRP2 (MDCK-MRP2 cells) [5] is reported as roughly 1.9 fold. Further, the “Cellular uptake, fold higher relative to LPV” value on P-gp (MDCK-MDR1 cells) [6] is recorded as roughly 2.4 fold.

For the compound `Cc1cccc(C)c1OCC(=O)NC(Cc1ccccc1)C(CC(Cc1ccccc1)NC(=O)C(C(C)C)N1CCCNC1=O)OC(=O)C(N)Cc1c[nH]c2ccccc12` (stereo not shown) [Trp-LPV, tryptophan-LPV], the “Solubility, fold higher relative to LPV” value in [1] is roughly 7 fold. In [1], the “Solubility in DDW” value is given as 274 ± 11 µg/mL (≈ 336 µM). The Degradation half life in data set [2] (pH 4, 37 °C) was found to be 123 ± 14 h; in data set [2] (pH 5.5, 37 °C), 50 ± 9 h; in data set [2] (pH 7.4, 37 °C), 5.4 ± 0.3 h. The “A-B permeability, fold higher relative to LPV” value on P-gp (MDCK-MDR1 cells) [3] was roughly 1.8 fold; on MRP2 (MDCK-MRP2 cells) [5], roughly 1.7 fold. For the same compound, in [4] (read-out: Km (affinity constant), 0.5–40 µM, 5 min, microsomes 0.3 mg/mL, Michaelis-Menten fit), the Michaelis constant (Km) was roughly 13.2 µM. In data set [4], the “Half life … fold higher compared to LPV” value lay in the range of 1.6 to 1.8 fold. The “Cellular uptake, fold higher relative to LPV” value on P-gp (MDCK-MDR1 cells) [6] was roughly 1.8 fold.

The solubility is the concentration that dissolves in the medium under given conditions. A low value points to little dissolved substance. As usually defined, the half-life is the time in which the quantity being followed falls by half. Higher therefore signals slow decline. Regarding `CCC(C)C(N)C(=O)OC(CC(Cc1ccccc1)NC(=O)C(C(C)C)N1CCCNC1=O)C(Cc1ccccc1)NC(=O)COc1c(C)cccc1C` (stereo not shown) [Ile-LPV, isoleucine-LPV], the “Solubility, fold higher relative to LPV” value in data set [1] is on record as “about 15 fold”. This compound returned a solubility at 24 h in [1] of 625 ± 27 µg/mL (≈ 842 µM). In addition, the half-life at 50 µM was 101 ± 29 h in data set [2] (pH 4), 53 ± 10 h in [2] (pH 5.5) and 6.4 ± 0.3 h in data set [2] (pH 7.4). Further, the “A-B permeability, fold higher relative to LPV” value on P-gp (MDCK-MDR1 cells) [3] is on record as “about 3 fold”; on MRP2 (MDCK-MRP2 cells) [5], “about 2.8 fold”. Further, the “Half life … fold higher compared to LPV” value in data set [4] was in the range of 1.6 to 1.8 fold. Moreover, the Km at 5 min with CYP3A4 is roughly 14.3 µM. The “Cellular uptake, fold higher relative to LPV” value at P-gp (MDCK-MDR1 cells) [6] is given as “about 2.7 fold”.

`C[S+](C)[O-]` [DMSO]: the “Reduction in absorbance (positive controls)” value with MDCK-WT cells is given as 30%.

The compound `Cc1cccc(C)c1OCC(=O)N[C@@H](Cc1ccccc1)[C@@H](O)C[C@H](Cc1ccccc1)NC(=O)[C@H](C(C)C)N1CCCNC1=O` [LPV, lopinavir] yielded a solubility at 24 h in [1] of 40 ± 8 µg/mL (≈ 63.6 µM). In addition, in the data set on MDCK-WT cells (100 µM), the Cytotoxicity result is recorded as “generated cytotoxic effects”. Besides, the “[3H]-LPV uptake in presence of increasing concentrations of test compound” value on P-gp (MDCK-MDR1 cells) [7] is “elevated significantly”; at MRP2 (MDCK-MRP2 cells) [8] (MDCK-MRP2, DPBS pH 7.4, 37 °C) it was “enhancement of [3H]-LPV uptake”.

Take `CN(C)C(=O)CCSC(SCCC(=O)O)c1cccc(/C=C/c2ccc3ccc(Cl)cc3n2)c1` (stereo not shown) [MK 571]: the “[3H]-LPV uptake, fold enhancement in presence of inhibitor” value at MRP2 (MDCK-MRP2 cells) [8] (25 µM inhibitor) came out at 2.5 fold; at MRP2 (MDCK-MRP2 cells) [8] (75 µM inhibitor), 3 fold.

Turning to `CC(C)(C)CC(C)(C)c1ccc(OCCO)cc1` [Triton-X], the “Reduction in absorbance (positive controls)” value in the data set with MDCK-WT cells was determined as 90%.
